Results as given in patent publication US20140163026A1, “8-ETHYL-6-(ARYL)PYRIDO[2,3-D]PYRIMIDIN-7(8H)-ONES FOR THE TREATMENT OF NERVOUS SYSTEM DISORDERS AND CANCER” (Afraxis Holdings, Inc., priority 2011, published 2014).

Experiments:
Type in all cases: biochemical
PAK2 (PAK65) = PAK2 (PAK65) (Homo sapiens, UniProt Q13177); assay: In vitro PAK inhibition assay (SelectScreen, Ser/Thr 20 peptide)
Description: (§1) Compounds are screened in 1% DMSO (final) in the well. For 10 point titrations, 3-fold serial dilutions are conducted.
(§2) All Peptide/Kinase Mixtures are diluted to a 2× working concentration in the appropriate Kinase Buffer
The 2×PAK2 (PAK65)/Ser/Thr 20 mixture is prepared in 50 mM HEPES pH 7.5, 0.01% BRIJ-35, 10 mM MgCl2, 1 mM EGTA. The final 10 μL Kinase Reaction consists of 0.29-6 ng PAK2 (PAK65) and 2 μM Ser/Thr 20 in 50 mM HEPES pH 7.5, 0.01% BRIJ-35, 10 mM MgCl2, 1 mM EGTA.
(§3) This control yields 100% cleaved peptide in the Development Reaction.
(§4) The 100% Phosphorylation Control, which consists of a synthetically phosphorylated peptide of the same sequence as the peptide substrate, is designed to allow for the calculation of percent phosphorylation.
(§5) This control is designed to produce a 10-50%* phosphorylated peptide in the Kinase Reaction.
(§6) A known inhibitor control standard curve, 10 point titration, is run for each individual kinase on the same plate as the kinase to ensure the kinase is inhibited within an expected IC50 range previously determined.
(§7) Add the following solutions to a well in a 384-well plate: • 2.5 μL of 4× Test Compound OR (100 nL 100× Test Compound plus 2.4 μL kinase buffer) • 5 μL of 2× Peptide/Kinase (PAK) Mixture • 2.5 μL of 4×ATP Solution • 2. Shake the plate for 30-seconds • 3. Incubate the PAK Kinase Reaction at room temperature for 60-minutes • 4. Add 5 μL of Development Reagent Solution to each well • 5. Shake the plate for 30-seconds • 6. Incubate the Development Reaction for 60-minutes • 7. Determine the fluorescence using a fluorescence plate reader • 8. Analyze the fluorescence data
(§8) SelectScreen® Kinase Profiling Service uses XLfit from IDBS.
(§9) The representative IC50 value with a known inhibitor for each kinase was determined at the ATP bin nearest to the ATP Km app.

PAK3 = PAK3 (Homo sapiens, UniProt O75914); assay: as above
Chain of PAK3 (O75914 whole entry): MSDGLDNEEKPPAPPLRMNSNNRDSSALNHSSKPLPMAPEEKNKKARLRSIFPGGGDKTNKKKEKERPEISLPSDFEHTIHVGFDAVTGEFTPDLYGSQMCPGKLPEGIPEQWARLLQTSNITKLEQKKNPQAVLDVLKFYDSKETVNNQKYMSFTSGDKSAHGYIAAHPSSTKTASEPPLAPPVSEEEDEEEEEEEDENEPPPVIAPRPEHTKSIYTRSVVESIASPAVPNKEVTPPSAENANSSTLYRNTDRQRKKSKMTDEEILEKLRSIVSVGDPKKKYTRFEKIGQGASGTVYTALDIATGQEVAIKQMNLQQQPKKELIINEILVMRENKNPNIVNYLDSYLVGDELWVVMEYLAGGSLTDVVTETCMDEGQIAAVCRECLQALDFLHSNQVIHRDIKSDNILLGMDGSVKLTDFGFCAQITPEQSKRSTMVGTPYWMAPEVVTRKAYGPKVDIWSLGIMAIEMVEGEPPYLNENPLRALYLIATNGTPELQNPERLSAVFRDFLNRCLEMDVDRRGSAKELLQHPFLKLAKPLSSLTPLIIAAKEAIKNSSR
Description: as §1, §2
The 2×PAK3/Ser/Thr 20 mixture is prepared in 50 mM HEPES pH 7.5, 0.01% BRIJ-35, 10 mM MgCl2, 1 mM EGTA.
as §3, §4, §5, §6, §7, §8, §9

PAK4 = PAK4 (Homo sapiens, UniProt O96013); assay: as above
Chain of PAK4 (O96013 whole entry): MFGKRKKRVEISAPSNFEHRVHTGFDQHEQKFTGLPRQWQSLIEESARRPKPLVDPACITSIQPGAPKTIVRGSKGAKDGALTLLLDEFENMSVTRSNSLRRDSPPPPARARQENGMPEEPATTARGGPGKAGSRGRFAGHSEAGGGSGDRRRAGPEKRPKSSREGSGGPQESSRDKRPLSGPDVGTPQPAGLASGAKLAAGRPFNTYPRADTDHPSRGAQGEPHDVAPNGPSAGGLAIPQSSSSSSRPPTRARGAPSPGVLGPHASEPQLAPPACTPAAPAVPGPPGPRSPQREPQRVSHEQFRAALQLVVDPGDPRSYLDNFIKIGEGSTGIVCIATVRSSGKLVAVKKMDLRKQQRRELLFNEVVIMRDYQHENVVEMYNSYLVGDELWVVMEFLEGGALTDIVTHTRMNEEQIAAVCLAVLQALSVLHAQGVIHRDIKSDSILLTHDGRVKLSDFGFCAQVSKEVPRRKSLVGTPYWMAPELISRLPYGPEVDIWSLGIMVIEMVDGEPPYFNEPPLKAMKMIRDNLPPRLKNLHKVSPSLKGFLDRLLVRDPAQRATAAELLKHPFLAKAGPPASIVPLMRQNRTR
Description: as §1, §2
The 2×PAK4/Ser/Thr 20 mixture is prepared in 50 mM HEPES pH 7.5, 0.01% BRIJ-35, 10 mM MgCl2, 1 mM EGTA. The final 10 μL Kinase Reaction consists of 0.1-0.75 ng PAK4 and 2 μM Ser/Thr 20 in 50 mM HEPES pH 7.5, 0.01% BRIJ-35, 10 mM MgCl2, 1 mM EGTA. After the 1 hour Kinase Reaction incubation, 5 μL of a 1:256 dilution of Development Reagent A is added.
as §3, §4
The minimum Emission Ratio in a screen is established by the 0% Inhibition Control, which contains active kinase. This control is designed to produce a 10-50%* phosphorylated peptide in the Kinase Reaction.
as §6
as §7, with “Bar-coded Corning, low volume NBS, black 384-well plate (Corning Cat. #3676) • 1. Add the” for “Add the”
SelectScreen® Kinase Profiling Service uses XLfit from IDBS. The dose response curve is curve fit to model number 205 (sigmoidal dose-response model).
The table below provides specifications and data around each kinase. The representative IC50 value with a known inhibitor for each kinase was determined at the ATP bin nearest to the ATP Km app.

PAK1 = PAK1 (Homo sapiens, UniProt Q13153); assay: In vitro PAK inhibition assay (SelectScreen, Ser/Thr 19 peptide)
Chain of PAK1 (Q13153 whole entry): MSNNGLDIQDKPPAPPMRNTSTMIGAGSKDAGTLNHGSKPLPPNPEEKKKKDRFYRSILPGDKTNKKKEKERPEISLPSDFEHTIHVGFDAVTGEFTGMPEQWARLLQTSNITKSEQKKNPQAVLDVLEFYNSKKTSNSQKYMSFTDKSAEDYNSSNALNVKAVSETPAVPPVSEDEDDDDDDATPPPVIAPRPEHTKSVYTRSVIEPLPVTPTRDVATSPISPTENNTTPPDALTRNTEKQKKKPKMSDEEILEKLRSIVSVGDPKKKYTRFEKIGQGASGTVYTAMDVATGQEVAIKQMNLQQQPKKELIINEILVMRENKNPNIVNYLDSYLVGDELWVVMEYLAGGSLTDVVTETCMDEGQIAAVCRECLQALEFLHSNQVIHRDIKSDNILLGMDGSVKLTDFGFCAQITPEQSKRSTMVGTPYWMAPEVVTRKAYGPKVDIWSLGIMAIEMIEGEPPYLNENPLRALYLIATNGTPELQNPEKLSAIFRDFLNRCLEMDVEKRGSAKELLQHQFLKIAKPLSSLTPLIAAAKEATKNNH
Description: as §1, §2
The 2×PAK1/Ser/Thr 19 mixture is prepared in 50 mM HEPES pH 7.5, 0.01% BRIJ-35, 10 mM MgCl2, 1 mM EGTA.
as §3, §4, §5, §6, §7, §8, §9

Chain of PAK2 (PAK65) (Q13177 whole entry): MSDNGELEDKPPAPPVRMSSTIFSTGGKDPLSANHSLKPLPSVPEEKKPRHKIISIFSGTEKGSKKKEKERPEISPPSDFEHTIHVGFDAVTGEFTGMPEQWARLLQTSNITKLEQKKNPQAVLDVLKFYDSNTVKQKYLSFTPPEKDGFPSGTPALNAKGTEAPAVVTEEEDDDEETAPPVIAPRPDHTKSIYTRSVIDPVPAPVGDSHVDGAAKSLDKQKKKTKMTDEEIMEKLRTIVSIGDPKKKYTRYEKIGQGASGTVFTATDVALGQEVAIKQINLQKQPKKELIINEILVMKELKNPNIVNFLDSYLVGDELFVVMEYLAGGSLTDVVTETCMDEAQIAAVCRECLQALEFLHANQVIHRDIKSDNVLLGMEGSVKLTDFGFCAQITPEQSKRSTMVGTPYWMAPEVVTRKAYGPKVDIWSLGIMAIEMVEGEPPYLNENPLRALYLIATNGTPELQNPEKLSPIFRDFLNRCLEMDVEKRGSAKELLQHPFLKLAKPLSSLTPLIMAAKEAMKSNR

| Structure (SMILES) | IC50 (PAK2 (PAK65)) | IC50 (PAK3) | IC50 (PAK4) | IC50 (PAK1) |
| --- | --- | --- | --- | --- |
| CCn1c(=O)c(-c2ccc(-c3cncnc3)cc2Cl)cc2cnc(Nc3ccc(N4CCN(C)CC4)cc3)nc21 | < 50 nM | < 50 nM | 500 to 5000 nM | < 50 nM |
| CCn1c(=O)c(-c2ccc(-c3ccncc3)cc2Cl)cc2cnc(Nc3ccc(N4CCN(C)CC4)cc3)nc21 | < 50 nM | < 50 nM | ≥ 5000 nM | < 50 nM |
| CCn1c(=O)c(-c2ccc(-c3cccnc3)cc2Cl)cc2cnc(Nc3ccc(N4CCN(C)CC4)cc3)nc21 | < 50 nM | < 50 nM | 500 to 5000 nM | < 50 nM |
| CCn1c(=O)c(-c2ccc(-c3ccc(C)nc3)cc2Cl)cc2cnc(Nc3ccc(C4CCNCC4)cc3)nc21 | < 50 nM | 50 to 500 nM | 500 to 5000 nM | < 50 nM |
| CCn1c(=O)c(-c2ccc(-c3ccnc(C)c3)cc2Cl)cc2cnc(Nc3ccc(C4CCNCC4)cc3)nc21 | 50 to 500 nM | 50 to 500 nM | 500 to 5000 nM | < 50 nM |
| CCN1CCC(c2ccc(Nc3ncc4cc(-c5ccc(-c6cccnc6)cc5Cl)c(=O)n(CC)c4n3)cc2F)CC1 | < 50 nM | < 50 nM | 500 to 5000 nM | < 50 nM |
| CCn1c(=O)c(-c2ccc(-c3cccnc3C)cc2Cl)cc2cnc(Nc3ccc(C4CCNCC4)c(F)c3)nc21 | < 50 nM | 50 to 500 nM | 500 to 5000 nM | < 50 nM |
| CCn1c(=O)c(-c2ccc(-c3cccnc3)cc2Cl)cc2cnc(Nc3ccc(CN(C)C)cc3)nc21 | < 50 nM | < 50 nM | 500 to 5000 nM | < 50 nM |
| Cc1ncccc1-c1ccc(-c2cc3cnc(Nc4ccc(C5CCNCC5)cc4)nc3n(C)c2=O)c(Cl)c1 | 50 to 500 nM | 50 to 500 nM | ≥ 5000 nM | < 50 nM |
| CCn1c(=O)c(-c2ccc(-c3cccnc3C)cc2Cl)cc2cnc(Nc3ccc(C4=CCNCC4)cc3)nc21 | < 50 nM | < 50 nM | 500 to 5000 nM | < 50 nM |
| CCn1c(=O)c(-c2ccc(-c3cccnc3F)cc2Cl)cc2cnc(Nc3ccc(C4=CCNCC4)cc3)nc21 | < 50 nM | < 50 nM | 50 to 500 nM | < 50 nM |
| CCn1c(=O)c(-c2ccc(-c3cnc(C)s3)cc2Cl)cc2cnc(Nc3ccc(C4=CCNCC4)cc3)nc21 | < 50 nM | < 50 nM | 500 to 5000 nM | < 50 nM |
| CCn1c(=O)c(-c2ccc(-c3ccc(C)nc3)cc2Cl)cc2cnc(Nc3ccc(C4CCN(C(C)C)CC4)cc3)nc21 | < 50 nM | 50 to 500 nM | ≥ 5000 nM | < 50 nM |
| CCn1c(=O)c(-c2ccc(-c3noc(C)n3)cc2Cl)cc2cnc(Nc3ccc(C4CCN5CCCC5C4)cc3)nc21 (centres unmarked) | < 50 nM | < 50 nM | ≥ 5000 nM | < 50 nM |
| CCn1c(=O)c(-c2ccc(-c3ccc(C)nc3)cc2Cl)cc2cnc(Nc3ccc(C4CCNCC4)c(F)c3)nc21 | < 50 nM | 50 to 500 nM | 500 to 5000 nM | < 50 nM |
| CCn1c(=O)c(-c2ccc(-c3cccnc3F)cc2Cl)cc2cnc(Nc3ccc(C4=CCN(C)CC4)cc3)nc21 | < 50 nM | < 50 nM | 500 to 5000 nM | < 50 nM |
| CCn1c(=O)c(-c2ccc(-c3ccnc(C(=O)NC)c3)cc2Cl)cc2cnc(Nc3ccc(CCN(C)C)cc3)nc21 | 50 to 500 nM | 50 to 500 nM | ≥ 5000 nM | 50 to 500 nM |
| CCn1c(=O)c(-c2ccc(-c3noc(C)n3)cc2Cl)cc2cnc(Nc3ccc(C4=CCNCC4)cc3)nc21 | < 50 nM | < 50 nM | 500 to 5000 nM | < 50 nM |

| Structure (SMILES) | IC50 (PAK2 (PAK65)) | IC50 (PAK3) | IC50 (PAK4) | IC50 (PAK1) |
| --- | --- | --- | --- | --- |
| CCN1CCC(c2ccc(Nc3ncc4cc(-c5ccc(-c6ccnc(C(=O)NC)c6)cc5Cl)c(=O)n(CC)c4n3)cc2)CC1 | 50 to 500 nM | 50 to 500 nM | 500 to 5000 nM | 50 to 500 nM |
| CCn1c(=O)c(-c2ccc(-c3noc(C)n3)cc2Cl)cc2cnc(Nc3ccc(C4=CCN(C)CC4)cc3)nc21 | < 50 nM | < 50 nM | 500 to 5000 nM | < 50 nM |
| CCn1c(=O)c(-c2ccc(-c3ccnc(C(=O)NC)c3)cc2Cl)cc2cnc(Nc3ccc(C4CCNCC4)c(F)c3)nc21 | 50 to 500 nM | > 5000 nM | ≥ 5000 nM | 50 to 500 nM |
| CCn1c(=O)c(-c2ccc(-c3ccc(C)nc3F)cc2Cl)cc2cnc(Nc3ccc(C4CCNCC4)cc3)nc21 | < 50 nM | 50 to 500 nM | 500 to 5000 nM | < 50 nM |
| CCn1c(=O)c(-c2ccc(-c3cccnc3C)cc2Cl)cc2cnc(Nc3ccc(C4CCN5CCCC5C4)cc3)nc21 (centres unmarked) | 50 to 500 nM | 50 to 500 nM | ≥ 5000 nM | < 50 nM |
| CCn1c(=O)c(-c2ccc(-c3ccc(C)nc3F)cc2Cl)cc2cnc(Nc3ccc(C4CCN(C(C)C)CC4)cc3)nc21 | < 50 nM | 50 to 500 nM | 500 to 5000 nM | 50 to 500 nM |
| CCn1c(=O)c(-c2ccc(-c3cccnc3C)cc2Cl)cc2cnc(Nc3ccc(C4CCN(C(C)C)CC4)cc3)nc21 | 50 to 500 nM | 50 to 500 nM | ≥ 5000 nM | < 50 nM |
| CCN1CCC(c2ccc(Nc3ncc4cc(-c5ccc(-c6ccc(C)nc6F)cc5Cl)c(=O)n(CC)c4n3)cc2)CC1 | 50 to 500 nM | 50 to 500 nM | 500 to 5000 nM | 50 to 500 nM |
| CCn1c(=O)c(-c2ccc(-c3ccc(C)nc3)cc2Cl)cc2cnc(Nc3ccc(CCN(C)C)cc3)nc21 | < 50 nM | 50 to 500 nM | 500 to 5000 nM | < 50 nM |
| CCn1c(=O)c(-c2ccc(-c3ccc(C)nc3F)cc2Cl)cc2cnc(Nc3ccc(CCN(C)C)cc3)nc21 | < 50 nM | < 50 nM | 500 to 5000 nM | < 50 nM |
| CCn1c(=O)c(-c2ccc(-c3cccnc3F)cc2Cl)cc2cnc(Nc3ccc(C4CCN(C(C)C)CC4)cc3)nc21 | < 50 nM | < 50 nM | 500 to 5000 nM | < 50 nM |
| CCn1c(=O)c(-c2ccc(-c3cccnc3C)cc2Cl)cc2cnc(Nc3ccc(CCN(C)C)cc3)nc21 | < 50 nM | 50 to 500 nM | ≥ 5000 nM | < 50 nM |
| CCn1c(=O)c(-c2ccc(-c3cccnc3F)cc2Cl)cc2cnc(Nc3ccc(CCN(C)C)cc3)nc21 | < 50 nM | < 50 nM | 50 to 500 nM | < 50 nM |
| CCN1CCC(c2ccc(Nc3ncc4cc(-c5ccc(-c6ccc(F)nc6C)cc5Cl)c(=O)n(CC)c4n3)cc2)CC1 | 50 to 500 nM | 50 to 500 nM | ≥ 5000 nM | < 50 nM |
| CCN1CCC(c2ccc(Nc3ncc4cc(-c5ccc(-c6cccnc6F)cc5Cl)c(=O)n(CC)c4n3)cc2)CC1 | < 50 nM | < 50 nM | 50 to 500 nM | < 50 nM |
| CCn1c(=O)c(-c2ccc(-c3ccc(F)nc3C)cc2Cl)cc2cnc(Nc3ccc(C4CCNCC4)cc3)nc21 | 50 to 500 nM | 50 to 500 nM | ≥ 5000 nM | < 50 nM |
| CCn1c(=O)c(-c2ccc(-c3ccc(C)nc3F)cc2Cl)cc2cnc(Nc3ccc(C4CCNCC4)c(F)c3)nc21 | 50 to 500 nM | 50 to 500 nM | 500 to 5000 nM | 50 to 500 nM |
